# Measurements taken from patent publication US20100168054A1, “Functionalized Beta 1,6 Glucosamine Disaccharides and Process for Their Preparation” (OM PHARMA, priority 2006, published 2010).
# What was measured:
# TLR4 = target: T1, TLR4 (Homo sapiens, UniProt O00206+Q9Y6Y9); experiment: HEK-MD2-TLR4-CD14 IL-8 secretion; type: cell-based; conditions: 24 h
# T1 construct: expressed in transfected cells; host or cells: HEK293
# Description: (§1) The HEK293 cell line was chosen for its null or low basal expression of the TLR genes. These cells enable efficient monitoring of TLR activity using ELISA analysis such as IL-8 titration or reporter-based systems that monitor TLR-induced NF-κB activation. HEK-TLR2 cells (Invivogen, Toulouse, France) are engineered HEK293 cells stably transfected with multiple genes from the TLR2 pathway that include TLR2 and genes participating in the recognition or involved in the signaling cascade. These cells secrete IL-8 after TLR2 stimulation. The experiments were performed according to manufacturers' instructions. Briefly, 2×10^4 cells/well (200 ul RPMI) are incubated at 37° C. during 3 days (5% CO2). The medium is removed, and 90 ul RPMi+5% FCS is added to the wells Then the agonists and controls are added (10 ul/well). The cells return to the incubator for 24 hours. The supernatants are collected and the IL-8 ELISA is performed according to manufacturer's instructions
# HEK-MD2-TLR4-CD14 are highly sensitive to LPS. They were obtained by stable transfection of HEK293 cells with the TLR4, MD2 and CD14 genes and an NF-κB-inducible reporter system. They secrete IL-8. We used the same experimental procedure as for the other HEK cell lines described above.
# [1] = tested on: THP1-Blue cells (express naturally both TLR2 and TLR4); experiment: THP1-Blue NF-κB/AP-1-inducible SEAP reporter; type: cell-based, human; conditions: for Optical density read at 625 nm, mean of duplicates: 48 h
# Description: A first series of experiment was performed on THP-1 cells, which express naturally both TLR2 and TLR4. THP-1 cells are human peripheral blood monocytic cells. Monocytes play a key role in innate immunity and express most TLRs at various levels. As for the primary cells, THP-1 cells activate NF-κB and other transcription factors in response to TLR ligands
# To facilitate analysis of TLR response in monocytes, InvivoGen (Toulouse, France) provides THP-1 clones stably transfected with an NF-κB-inducible reporter system, called THP1-Blue™. THP-1 Blue cells were stably transfected with a reporter plasmid expressing a secreted embryonic alkaline phosphatase (SEAP) gene under the control of a promoter inducible by several transcription factors such as NF-κB and AP-1. Upon TLR stimulation, THP1-Blue™ cells activate transcription factors and subsequently the secretion of SEAP which is easily detectable when using QUANTI-Blue\u2122a medium that turns purple/blue in the presence of SEAP.
# The cells were stimulated with the controls and compounds of the invention according to manufacturer's instructions. Results: Increased OD at 625 Nm after 48 Hours: The results for the controls (negative=LPS K12CD25 ultrapure, a TLR4 agonist; and PAM3CSK4=positive, a TLR2 agonist) are provided in the table below. The results (expressed as OD of arbitrary units) show the mean values (from duplicate measures) of Optical density read at 625 nm, 48 h after stimulation at 37° C. with the controls (up to 1000 ng/ml): […]
# [2] = tested on: human peripheral blood mononuclear cells (PBMC); experiment: TNF-α secretion by human PBMC (ELISA); type: cell-based; conditions: for TNF-α: 24 h; for TNF-α induction (in words): 0.2, 2, 20 μg/ml
# Description: Peripheral blood from healthy donors (Centre de transfusion, Hôpital Universitaire, Geneva) was centrifuged to get the buffy coat. The buffy coat was mixed with Hanks' balanced saline solution (HBSS, Sigma, Buchs, Switzerland), layered over Ficoll Paque Plus (Amersham Pharmacia) to 1.077 g/mL and centrifuged (2800 rpm, 20° C., 25 min). Cells harvested from the interphase were washed twice in HBSS at 800 rpm for 15 min at room temperature and the pelleted cells were resuspended in HBSS. The cell counts were performed using a Neubauer cell. All cell cultures were performed in RPMI-1640 medium supplemented with penicillin (100 U/mL), streptomycin (100 μg/mL), L-glutamine (2 mmol/L) and 10% fetal calf serum (FCS), all obtained from Sigma. For in vitro stimulation, the cells were cultured at a concentration of 1×10^6 viable cells/well.
# PBMC were incubated at 37° C. and under 5% CO2 atmosphere with the controls (see below) and with the products of the invention at 1, 5, and 20 μg/mL for IL-6, and at 0.2, 2, and 20 μg/mL for TNF-α secretion. Medium: RPMI alone.
# The surpernatants of the cultures were harvested after 24 h and the concentration of IL-6 and TNF-α were measured by an enzyme-linked immunosorbent assay (ELISA) (Human IL-6 and TNF-α ELISA Set, BD OptEIA, San Diego, USA), according to the manufacturer instructions. The detection limits were 10 and 8 pg/mL respectively.
# TLR2 and CD14 = target: T2, TLR2 and CD14 (Homo sapiens, UniProt O60603); experiment: HEK-TLR2-CD14 IL-8 secretion; type: cell-based; conditions: for IL-8 secretion, mean: 24 h; for activation of IL-8 secretion via TLR2 (in words): HEK-TLR2-CD14
# T2 construct: expressed in transfected cells; host or cells: HEK (HEK-TLR2-CD14 cell line)
# Description: as §1, with “manufacturer's instructions These preliminary results were confirmed in another cell line expressing concomitantly TLR2 and CD14. The procedure used is similar to the one described just above.” for “manufacturer's instructions”
# T1 sequence (O00206 24-839): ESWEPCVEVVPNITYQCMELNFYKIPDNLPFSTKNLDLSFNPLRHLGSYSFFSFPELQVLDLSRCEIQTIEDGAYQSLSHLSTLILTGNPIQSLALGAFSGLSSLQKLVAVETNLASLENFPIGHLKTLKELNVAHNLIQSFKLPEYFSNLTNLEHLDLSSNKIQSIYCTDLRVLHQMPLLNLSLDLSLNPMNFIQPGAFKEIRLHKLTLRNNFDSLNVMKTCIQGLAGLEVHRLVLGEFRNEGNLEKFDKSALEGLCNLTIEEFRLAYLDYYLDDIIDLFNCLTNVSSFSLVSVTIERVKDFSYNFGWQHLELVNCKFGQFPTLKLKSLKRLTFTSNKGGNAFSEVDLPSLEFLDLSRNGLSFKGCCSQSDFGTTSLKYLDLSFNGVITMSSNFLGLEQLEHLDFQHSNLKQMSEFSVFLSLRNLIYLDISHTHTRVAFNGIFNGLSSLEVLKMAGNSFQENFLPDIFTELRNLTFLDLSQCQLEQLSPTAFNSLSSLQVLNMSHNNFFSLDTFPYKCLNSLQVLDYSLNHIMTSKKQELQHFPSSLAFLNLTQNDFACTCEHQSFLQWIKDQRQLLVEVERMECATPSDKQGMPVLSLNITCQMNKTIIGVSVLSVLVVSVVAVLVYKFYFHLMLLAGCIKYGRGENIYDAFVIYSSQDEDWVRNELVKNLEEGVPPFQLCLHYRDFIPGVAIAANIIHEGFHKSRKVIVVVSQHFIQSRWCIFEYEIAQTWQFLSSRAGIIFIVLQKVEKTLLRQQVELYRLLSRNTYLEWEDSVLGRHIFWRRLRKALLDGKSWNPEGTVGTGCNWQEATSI
# T1 sequence (Q9Y6Y9 17-160 limits assumed): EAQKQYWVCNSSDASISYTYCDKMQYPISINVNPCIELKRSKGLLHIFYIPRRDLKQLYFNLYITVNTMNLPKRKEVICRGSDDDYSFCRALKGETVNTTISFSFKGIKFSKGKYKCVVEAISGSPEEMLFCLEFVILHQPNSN
# T2 sequence (O60603 21-784): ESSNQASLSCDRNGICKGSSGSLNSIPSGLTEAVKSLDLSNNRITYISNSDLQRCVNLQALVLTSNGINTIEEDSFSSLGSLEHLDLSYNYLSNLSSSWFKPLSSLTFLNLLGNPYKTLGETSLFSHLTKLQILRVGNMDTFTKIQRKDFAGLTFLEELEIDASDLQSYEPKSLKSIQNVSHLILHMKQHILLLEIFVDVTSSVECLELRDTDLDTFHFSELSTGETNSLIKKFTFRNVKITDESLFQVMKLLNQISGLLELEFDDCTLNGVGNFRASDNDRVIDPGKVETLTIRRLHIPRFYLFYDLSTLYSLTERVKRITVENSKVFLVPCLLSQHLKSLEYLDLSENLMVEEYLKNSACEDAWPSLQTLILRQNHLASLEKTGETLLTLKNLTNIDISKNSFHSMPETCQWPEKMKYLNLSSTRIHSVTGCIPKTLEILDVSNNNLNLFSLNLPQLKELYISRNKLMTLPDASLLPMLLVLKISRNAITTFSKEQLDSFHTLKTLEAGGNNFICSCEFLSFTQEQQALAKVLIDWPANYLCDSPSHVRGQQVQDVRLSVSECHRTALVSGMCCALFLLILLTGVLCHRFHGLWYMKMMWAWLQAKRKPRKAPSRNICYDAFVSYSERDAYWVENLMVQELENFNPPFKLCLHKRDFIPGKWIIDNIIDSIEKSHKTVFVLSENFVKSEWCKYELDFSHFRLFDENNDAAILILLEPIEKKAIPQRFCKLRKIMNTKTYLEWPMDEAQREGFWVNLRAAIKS
"IL-8 secretion, mean (TLR4; 14 ng/ml)","IL-8 secretion, mean (TLR4; 41 ng/ml)","IL-8 secretion, mean (TLR4; 124 ng/ml)","IL-8 secretion, mean (TLR4; 370 ng/ml)","IL-8 secretion, mean (TLR4; 1111 ng/ml)","IL-8 secretion, mean (TLR4; 3333 ng/ml)","IL-8 secretion, mean (TLR4; 10000 ng/ml)","IL-8 secretion, mean (TLR2 and CD14; 14 ng/ml)","IL-8 secretion, mean (TLR2 and CD14; 41 ng/ml)",Structure (SMILES),activation of THP-1 cells (in words) [1],"Optical density read at 625 nm, mean of duplicates ([1]; 14 ng/ml)","Optical density read at 625 nm, mean of duplicates ([1]; 41 ng/ml)","Optical density read at 625 nm, mean of duplicates ([1]; 124 ng/ml)","Optical density read at 625 nm, mean of duplicates ([1]; 370 ng/ml)","Optical density read at 625 nm, mean of duplicates ([1]; 1111 ng/ml)","Optical density read at 625 nm, mean of duplicates ([1]; 3333 ng/ml)","Optical density read at 625 nm, mean of duplicates ([1]; 10000 ng/ml)",TNF-α ([2]; 0.2 μg/ml),TNF-α ([2]; 2 μg/ml),TNF-α ([2]; 20 μg/ml),other results
1.83 pg/mL,1.79 pg/mL,1.65 pg/mL,1.64 pg/mL,1.58 pg/mL,1.62 pg/mL,1.78 pg/mL,0.10 pg/mL,0.03 pg/mL,"CCCCCCCCCCCC(=O)O[C@H](CCCCCCCCCCC)CC(=O)N[C@H]1[C@H](OC[C@H]2O[C@H](OCCOP(=O)(O)O)[C@H](NC(=O)C[C@H](O)CCCCCCCCCCC)[C@@H](O)[C@@H]2O)O[C@H](CO)[C@@H](OP(=O)(O)O)[C@@H]1O [compound 33, 2-(Phosphonooxy)ethyl-2-Deoxy-6-O-[2-deoxy-4-O-(dihydroxyphosphoryl)-2-[(R)-3-dodecanoyloxytetradecanoylamino]-β-D-glucopyranosyl]-2-[(R)-3-hydroxytetradecanoylamino]-α-D-glucopyranoside]",weaker,0.13 OD,0.12 OD,0.13 OD,0.16 OD,0.19 OD,0.25 OD,0.35 OD,8.0 pg/mL,8.3 pg/mL,21 pg/mL,"IL-8 secretion, mean (TLR2 and CD14; 124 ng/ml): 0.17 pg/mL; IL-8 secretion, mean (TLR2 and CD14; 370 ng/ml): 0.19 pg/mL; IL-8 secretion, mean (TLR2 and CD14; 1111 ng/ml): 0.52 pg/mL; IL-8 secretion, mean (TLR2 and CD14; 3333 ng/ml): 1.49 pg/mL; IL-8 secretion, mean (TLR2 and CD14; 10000 ng/ml): 4.24 pg/mL; activation of IL-8 secretion via TLR2 (in words) (TLR2 and CD14): able to activate IL-8 secretion via TLR2"
1.88 pg/mL,1.97 pg/mL,1.93 pg/mL,1.85 pg/mL,1.94 pg/mL,1.89 pg/mL,1.70 pg/mL,0.13 pg/mL,0.14 pg/mL,"CCCCCCCCCCCC(=O)O[C@H](CCCCCCCCCCC)CC(=O)N[C@H]1[C@H](OC[C@H]2O[C@H](OCCC)[C@H](NC(=O)C[C@H](O)CCCCCCCCCCC)[C@@H](O)[C@@H]2O)O[C@H](CO)[C@@H](OP(=O)(O)O)[C@@H]1O [compound 17, Propyl-2-Deoxy-6-O-[2-deoxy-4-O-(dihydroxyphosphoryl)-2-[(R)-3-dodecanoyloxytetradecanoylamino]-β-D-glucopyranosyl]-2-[(R)-3-hydroxytetradecanoylamino]-α-D-glucopyranoside]",good activators of THP-1 cells,0.13 OD,0.15 OD,0.19 OD,0.36 OD,0.74 OD,1.02 OD,1.15 OD,46 pg/mL,474 pg/mL,2114 pg/mL,"TNF-α induction (in words) [2]: induced high levels of TNF-α; IL-8 secretion, mean (TLR2 and CD14; 124 ng/ml): 0.20 pg/mL; IL-8 secretion, mean (TLR2 and CD14; 370 ng/ml): 0.22 pg/mL; IL-8 secretion, mean (TLR2 and CD14; 1111 ng/ml): 0.40 pg/mL; IL-8 secretion, mean (TLR2 and CD14; 3333 ng/ml): 1.06 pg/mL; IL-8 secretion, mean (TLR2 and CD14; 10000 ng/ml): 3.59 pg/mL; activation of IL-8 secretion via TLR2 (in words) (TLR2 and CD14): able to activate IL-8 secretion via TLR2"
1.75 pg/mL,1.68 pg/mL,1.62 pg/mL,1.66 pg/mL,1.60 pg/mL,1.63 pg/mL,1.90 pg/mL,0.03 pg/mL,0.00 pg/mL,"CCCCCCCCCCCC(=O)O[C@H](CCCCCCCCCCC)CC(=O)N[C@H]1[C@H](OC[C@H]2O[C@H](O)[C@H](NC(=O)C[C@H](O)CCCCCCCCCCC)[C@@H](O)[C@@H]2O)O[C@H](CO)[C@@H](OP(=O)(O)O)[C@@H]1O [compound 16, 2-Deoxy-6-O-[2-deoxy-4-O-(dihydroxyphosphoryl)-2-[(R)-3-dodecanoyloxytetradecanoylamino]-β-D-glucopyranosy]-2-[(R)-3-hydroxytetradecanoylamino]-α-D-glucopyranose]",weaker,0.15 OD,0.13 OD,0.15 OD,0.16 OD,0.17 OD,0.18 OD,0.22 OD,0.69 pg/mL,49 pg/mL,1705 pg/mL,"TNF-α induction (in words) [2]: induced high levels of TNF-α; IL-8 secretion, mean (TLR2 and CD14; 124 ng/ml): 0.03 pg/mL; IL-8 secretion, mean (TLR2 and CD14; 370 ng/ml): 0.01 pg/mL; IL-8 secretion, mean (TLR2 and CD14; 1111 ng/ml): 0.06 pg/mL; IL-8 secretion, mean (TLR2 and CD14; 3333 ng/ml): 0.13 pg/mL; IL-8 secretion, mean (TLR2 and CD14; 10000 ng/ml): 0.22 pg/mL"
,,,,,,,,,"CCCCCCCCCCCC(=O)O[C@H](CCCCCCCCCCC)CC(=O)NC1C(OCC2OC(OP(=O)(O)O)C(NC(=O)C[C@H](O)CCCCCCCCCCC)C(O)C2O)OC(CO)C(OP(=O)(O)O)C1O (stereo partly drawn) [compound 1b, 2-Deoxy-6-O-[2-deoxy-4-O-(dihydroxyphosphoryl)-2-[(R)-3-dodecanoyloxytetradecanoylamino]-β-D-glucopyranosyl]-2-[(R)-3-hydroxytetradecanoylamino]-α-D-glucopyranosyl dihydrogenophosphate]",,,,,,,,,37 pg/mL,117 pg/mL,1105 pg/mL,TNF-α induction (in words) [2]: induced high levels of TNF-α
